The values below come from patent publication US12723063B2, “GIPR-agonist compounds” (Eli Lilly and Company, priority 2019, dated 2026).

*1 amine or outer side, *2 acyl side, *3 side chain or, on linkers, in order; H or OH if unused. Where a SMILES comes first, the peptide text is derived from it. Side-chain parts run from the residue outwards. [ ]: non-standard residue; d: D form. The star is where a group is joined. C20 diacid = O=C(O)CCCCCCCCCCCCCCCCCCC(=O)*; γGlu = O=C(O)[C@H](CCC(=O)[*:2])N[*:1]; 4Pal = N[C@@H](Cc1ccncc1)C(=O)O; αMeL = CC(C)C[C@](C)(N)C(=O)O; Orn = NCCC[C@H](N)C(=O)O; AEEA = NCCOCCOCC(=O)O; Aib = CC(C)(N)C(=O)O

Test in all cases: cAMP functional assay (HTRF) in HEK293 cells in presence of 0.1% casein
What all share (format): cell-based
A general note: Time-resolved FRET reads energy transfer from a long-lived donor to a nearby acceptor.

The target in experiment [1] is T1, human GLP-1 receptor (GLP-1R) (Homo sapiens, UniProt P43220).
T1 construct: expressed in transfected cells; host or cells: HEK293
Conditions: HEK293 cells expressing human GLP-1R, geometric mean, read-out: hGLP1R cAMP Rel EC50 nM (SEM, n).

The target in experiment [2] is T2, human glucose-dependent insulinotropic peptide receptor (GIPR) (Homo sapiens, UniProt P48546).
T2 construct: expressed in transfected cells; host or cells: HEK293
T2 sequence (P48546 22-466): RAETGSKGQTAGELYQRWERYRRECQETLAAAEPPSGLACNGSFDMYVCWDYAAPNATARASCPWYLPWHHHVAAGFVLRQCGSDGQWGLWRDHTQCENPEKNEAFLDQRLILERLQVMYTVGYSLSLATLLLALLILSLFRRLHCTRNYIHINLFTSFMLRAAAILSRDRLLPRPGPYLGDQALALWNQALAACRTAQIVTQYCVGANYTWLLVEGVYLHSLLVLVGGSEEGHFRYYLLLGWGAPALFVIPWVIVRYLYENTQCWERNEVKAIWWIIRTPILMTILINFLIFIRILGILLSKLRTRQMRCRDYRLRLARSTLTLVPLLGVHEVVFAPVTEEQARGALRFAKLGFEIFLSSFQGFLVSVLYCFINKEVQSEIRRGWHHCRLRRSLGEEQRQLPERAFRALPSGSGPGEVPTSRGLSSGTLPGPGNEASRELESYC
Conditions: HEK293 cells expressing human GIPR, geometric mean, read-out: hGIPR cAMP Rel EC50 nM (SEM, n).

The target in experiment [3] is T3, human glucagon receptor (GcgR) (Homo sapiens, UniProt P47871).
T3 construct: expressed in transfected cells; host or cells: HEK293
Conditions: HEK293 cells expressing human GcgR, geometric mean, read-out: hGcgR cAMP Rel EC50 nM (SEM, n).

T1 sequence (P43220 24-463): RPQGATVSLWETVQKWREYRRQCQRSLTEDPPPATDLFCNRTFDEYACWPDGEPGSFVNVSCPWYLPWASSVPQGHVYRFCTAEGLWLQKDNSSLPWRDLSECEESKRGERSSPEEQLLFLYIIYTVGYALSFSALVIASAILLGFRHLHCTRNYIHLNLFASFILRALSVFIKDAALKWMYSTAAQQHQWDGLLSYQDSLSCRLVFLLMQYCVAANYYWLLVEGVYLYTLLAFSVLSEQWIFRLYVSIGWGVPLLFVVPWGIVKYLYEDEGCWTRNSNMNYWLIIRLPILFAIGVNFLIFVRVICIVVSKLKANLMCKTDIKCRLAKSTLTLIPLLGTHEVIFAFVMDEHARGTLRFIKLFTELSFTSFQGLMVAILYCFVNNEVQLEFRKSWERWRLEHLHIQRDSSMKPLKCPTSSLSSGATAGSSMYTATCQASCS
T3 sequence (P47871 26-477): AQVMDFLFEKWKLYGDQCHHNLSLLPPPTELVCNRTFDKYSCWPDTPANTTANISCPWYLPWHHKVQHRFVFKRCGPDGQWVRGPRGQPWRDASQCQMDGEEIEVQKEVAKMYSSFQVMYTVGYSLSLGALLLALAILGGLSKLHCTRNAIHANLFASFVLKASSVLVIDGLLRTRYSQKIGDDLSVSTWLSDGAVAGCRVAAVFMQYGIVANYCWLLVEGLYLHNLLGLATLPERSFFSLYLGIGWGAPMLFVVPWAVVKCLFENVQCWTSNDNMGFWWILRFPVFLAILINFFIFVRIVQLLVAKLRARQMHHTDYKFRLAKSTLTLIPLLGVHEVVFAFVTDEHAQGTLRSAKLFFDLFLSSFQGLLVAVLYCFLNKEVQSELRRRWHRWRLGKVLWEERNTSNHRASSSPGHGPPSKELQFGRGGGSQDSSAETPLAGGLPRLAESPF

Broadly, the EC50 is the midpoint of the concentration-response curve. Regarding `CC[C@H](C)[C@H](NC(=O)[C@H](CCCN)NC(=O)[C@H](CC(=O)O)NC(=O)[C@H](CC(C)C)NC(=O)[C@](C)(CC(C)C)NC(=O)[C@@H](NC(=O)[C@H](CO)NC(=O)[C@H](Cc1ccc(O)cc1)NC(=O)[C@H](CC(=O)O)NC(=O)[C@H](CO)NC(=O)[C@@H](NC(=O)[C@H](Cc1ccccc1)NC(=O)[C@@H](NC(=O)CNC(=O)[C@H](CCC(=O)O)NC(=O)C(C)(C)NC(=O)[C@@H](N)Cc1ccc(O)cc1)[C@@H](C)O)[C@@H](C)CC)[C@@H](C)CC)C(=O)N[C@@H](Cc1c[nH]cn1)C(=O)N[C@@H](CCC(N)=O)C(=O)NC(C)(C)C(=O)N[C@@H](CCC(=O)O)C(=O)N[C@@H](Cc1ccccc1)C(=O)N[C@H](C(=O)N[C@@H](CCC(=O)O)C(=O)N[C@@H](Cc1ccncc1)C(=O)N[C@@H](CCCCNC(=O)COCCOCCNC(=O)COCCOCCNC(=O)CC[C@H](NC(=O)CCCCCCCCCCCCCCCCCCC(=O)O)C(=O)O)C(=O)N[C@@H](CC(C)C)C(=O)N[C@@H](CCC(=O)O)C(=O)N[C@@H](C)C(=O)NCC(=O)N1CCC[C@H]1C(=O)N[C@@H](CO)C(=O)N[C@@H](CO)C(=O)NCC(=O)N[C@@H](C)C(=O)N1CCC[C@H]1C(=O)N1CCC[C@H]1C(=O)N1CCC[C@H]1C(=O)N[C@@H](CO)C(N)=O)C(C)C` [Example 122] (H-Y[Aib]EGTFISDYSI[αMeL]LD[Orn]IHQ[Aib]EFVE[4Pal]K([AEEA-AEEA-γGlu-C20 diacid])LEAGPSSGAPPPS-NH2), the figures for the EC50 in experiment [1], in experiment [2] and in experiment [3] were above 5000 nM, 0.01 nM and above 5000 nM, respectively.
